Values of other authors as cited in patent publication US4933445A, “Heteroazabenzobicyclic carboxamide 5-HT3 antagonists” (Rorer Pharmaceutical Corporation, priority 1988, dated 1990).

Tested on: 5-HT3 receptor
Conditions: becomes more prominent at higher doses

For `CCN(CC)CCNC(=O)c1cc(Cl)c(N)cc1OC` [Metoclopramide], the 5-HT3-antagonist activity is listed as “weak”.
